From ChEMBL document CHEMBL1151264, “Investigation of brominated tryptophan alkaloids from two thorectidae sponges: Thorectandra and Smenospongia” (2005)
Values after ≈ are worked out from the molar mass of the structure shown.

Each compound was assayed on Staphylococcus epidermidis (assay: Antibacterial activity against Staphylococcus epidermidis ATCC 12228).
Type: functional

MIC | SMILES
6.25 µg/mL (≈ 23.3 µM) | COC(=O)Cc1c[nH]c2cc(Br)ccc12
50 µg/mL (≈ 197 µM) | COC(=O)c1c[nH]c2cc(Br)ccc12
100 µg/mL (≈ 274 µM) | COC1(Cc2c[nH]c3cc(Br)ccc23)C(=O)N(C)C(=N)N1C (stereo not given)
12.5 µg/mL (≈ 33 µM) | CCOC1(Cc2c[nH]c3cc(Br)ccc23)C(=O)N(C)C(=N)N1C (stereo not given)
25 µg/mL (≈ 80.3 µM) | CN(C)[C@@H](Cc1c[nH]c2ccc(Br)cc12)C(=O)O
25 µg/mL (≈ 74.6 µM) | CN1C(=N)N(C)C(Cc2c[nH]c3cc(Br)ccc23)C1=O (stereo not given)
100 µg/mL | C[N+](C)(C)[C@@H](Cc1c[nH]c2ccc(Br)cc12)C(=O)O
12.5 µg/mL (≈ 35.6 µM) | CN1C(=N)N(C)C(O)(Cc2c[nH]c3cc(Br)ccc23)C1=O (stereo not given)
25 µg/mL (≈ 98.3 µM) | CN1C(=N)N(C)/C(=C/c2c[nH]c3ccccc23)C1=O [APLYSINOPSIN]

SMILES | MIC
CN[C@H](CC(C)C)C(=O)N[C@H]1C(=O)N[C@@H](CC(N)=O)C(=O)N[C@H]2C(=O)N[C@H]3C(=O)N[C@H](C(=O)N[C@H](C(=O)O)c4cc(O)cc(O)c4-c4cc3ccc4O)[C@H](O)c3ccc(c(Cl)c3)Oc3cc2cc(c3O[C@@H]2O[C@H](CO)[C@@H](O)[C@H](O)[C@H]2O[C@H]2C[C@](C)(N)[C@H](O)[C@H](C)O2)Oc2ccc(cc2Cl)[C@H]1O [VANCOMYCIN] | 0.625 µg/mL (≈ 0.431 µM)
